Patent US20240000872A1, “NOVEL BACTERIOPHAGE THAT LYSES ACINETOBACTER GENUS BACTERIA HAVING RESISTANCE TO ANTIBIOTICS” (priority 2020, published 2024)

System: Acinetobacter baumannii strains
Experiment: Antibiotic susceptibility test (CLSI disk diffusion test method, read per CLSI 2016); as to antibiotic susceptibility S/I/R: key: ‘S’ means susceptible; ‘I’ means intermediate; ‘R’ means resistant; as to susceptibility category (S/I/R): key: ‘S’ means susceptible; ‘I’ means intermediate; ‘R’ means resistant
Assay type: cell-based
Parameters: antibiotic susceptibility test value / susceptibility test value (number given before S/I/R) / antibiotic susceptibility value: unit not given here

## gentamicin
Host strain YMC16/01/R353
  antibiotic susceptibility value: 16
  susceptibility category (S/I/R): R
  susceptibility test value (number given before S/I/R): 16
Host strain YMC16/01/R380
  antibiotic susceptibility S/I/R: R
  antibiotic susceptibility value: 16
  susceptibility category (S/I/R): R
  susceptibility test value (number given before S/I/R): 16
Host strain YMC16/01/R397
  antibiotic susceptibility S/I/R: R
  antibiotic susceptibility value: 16
  susceptibility category (S/I/R): R
  susceptibility test value (number given before S/I/R): 16
Host strain YMC16/01/R405
  antibiotic susceptibility S/I/R: R
  antibiotic susceptibility value: 16
  susceptibility category (S/I/R): R
  susceptibility test value (number given before S/I/R): 16
Host strain YMC16/03/R4461
  antibiotic susceptibility S/I/R: R
  antibiotic susceptibility value: 16
  susceptibility category (S/I/R): R
  susceptibility test value (number given before S/I/R): 16
Host strain YMC16/05/R2210
  antibiotic susceptibility S/I/R: R
  antibiotic susceptibility value: 16
  susceptibility category (S/I/R): R
  susceptibility test value (number given before S/I/R): 16
Host strain YMC16/07/R2512
  antibiotic susceptibility S/I/R: R
  antibiotic susceptibility value: 16
  susceptibility category (S/I/R): R
  susceptibility test value (number given before S/I/R): 16
Host strain YMC16/09/R2471
  antibiotic susceptibility S/I/R: R
  antibiotic susceptibility value: 16
  susceptibility category (S/I/R): R
  susceptibility test value (number given before S/I/R): 16
Host strain YMC16/10/R2537
  antibiotic susceptibility S/I/R: R
  antibiotic susceptibility value: 16
  susceptibility category (S/I/R): R
  susceptibility test value (number given before S/I/R): 16
Host strain YMC16/12/B11422
  antibiotic susceptibility S/I/R: R
  antibiotic susceptibility value: 16
  susceptibility category (S/I/R): R
  susceptibility test value (number given before S/I/R): 16
Host strain YMC16/12/B11449
  antibiotic susceptibility S/I/R: R
  antibiotic susceptibility value: 16
  susceptibility category (S/I/R): R
  susceptibility test value (number given before S/I/R): 16
Host strain YMC16/12/B13325
  antibiotic susceptibility S/I/R: R
  antibiotic susceptibility value: 16
  susceptibility category (S/I/R): R
  susceptibility test value (number given before S/I/R): 16
Host strain YMC16/12/P503
  antibiotic susceptibility S/I/R: R
  antibiotic susceptibility value: 16
  susceptibility category (S/I/R): R
  susceptibility test value (number given before S/I/R): 16
Host strain YMC16/12/R4637
  antibiotic susceptibility S/I/R: R
  antibiotic susceptibility value: 16
  susceptibility category (S/I/R): R
  susceptibility test value (number given before S/I/R): 16
Host strain YMC17/01/B8053
  antibiotic susceptibility S/I/R: R
  antibiotic susceptibility value: 16
  susceptibility category (S/I/R): R
  susceptibility test value (number given before S/I/R): 16
Host strain YMC17/01/B10087
  antibiotic susceptibility S/I/R: R
  antibiotic susceptibility value: 16
  susceptibility category (S/I/R): R
  susceptibility test value (number given before S/I/R): 16
Host strain YMC17/01/B12075
  antibiotic susceptibility S/I/R: S
  antibiotic susceptibility value: 1
  susceptibility category (S/I/R): S
  susceptibility test value (number given before S/I/R): 1
Host strain YMC17/01/B13454
  antibiotic susceptibility S/I/R: R
  antibiotic susceptibility value: 16
  susceptibility category (S/I/R): R
  susceptibility test value (number given before S/I/R): 16
Host strain YMC17/01/P518
  antibiotic susceptibility S/I/R: R
  antibiotic susceptibility value: 16
  susceptibility category (S/I/R): R
  susceptibility test value (number given before S/I/R): 16
Host strain YMC17/01/R2812
  antibiotic susceptibility S/I/R: R
  antibiotic susceptibility value: 16
  susceptibility category (S/I/R): R
  susceptibility test value (number given before S/I/R): 16
Host strain YMC17/02/B14
  antibiotic susceptibility S/I/R: R
  antibiotic susceptibility value: 16
  susceptibility category (S/I/R): R
  susceptibility test value (number given before S/I/R): 16
Host strain YMC17/02/B87
  antibiotic susceptibility S/I/R: S
  antibiotic susceptibility value: 2
  susceptibility category (S/I/R): S
  susceptibility test value (number given before S/I/R): 2
Host strain YMC17/02/B721
  antibiotic susceptibility S/I/R: R
  antibiotic susceptibility value: 16
  susceptibility category (S/I/R): R
  susceptibility test value (number given before S/I/R): 16
Host strain YMC17/02/B4039
  antibiotic susceptibility S/I/R: R
  antibiotic susceptibility value: 16
  susceptibility category (S/I/R): R
  susceptibility test value (number given before S/I/R): 16
Host strain YMC17/02/B4520
  antibiotic susceptibility S/I/R: R
  antibiotic susceptibility value: 16
  susceptibility category (S/I/R): R
  susceptibility test value (number given before S/I/R): 16
Host strain YMC17/02/B4864
  antibiotic susceptibility S/I/R: S
  antibiotic susceptibility value: 1
  susceptibility category (S/I/R): S
  susceptibility test value (number given before S/I/R): 1
Host strain YMC17/02/B8414
  antibiotic susceptibility S/I/R: R
  antibiotic susceptibility value: 16
  susceptibility category (S/I/R): R
  susceptibility test value (number given before S/I/R): 16
Host strain YMC17/02/P523
  antibiotic susceptibility S/I/R: S
  antibiotic susceptibility value: 4
  susceptibility category (S/I/R): S
  susceptibility test value (number given before S/I/R): 4
Host strain YMC17/02/R541
  antibiotic susceptibility S/I/R: R
  antibiotic susceptibility value: 16
  susceptibility category (S/I/R): R
  susceptibility test value (number given before S/I/R): 16
Host strain YMC17/02/R2392
  antibiotic susceptibility S/I/R: R
  antibiotic susceptibility value: 16
  susceptibility category (S/I/R): R
  susceptibility test value (number given before S/I/R): 16
Host strain YMC17/03/B4730
  antibiotic susceptibility S/I/R: R
  antibiotic susceptibility value: 16
  susceptibility category (S/I/R): R
  susceptibility test value (number given before S/I/R): 16
Host strain YMC17/03/B5000
  antibiotic susceptibility S/I/R: R
  antibiotic susceptibility value: 16
  susceptibility category (S/I/R): R
  susceptibility test value (number given before S/I/R): 16
Host strain YMC17/03/P971
  antibiotic susceptibility S/I/R: R
  antibiotic susceptibility value: 16
  susceptibility category (S/I/R): R
  susceptibility test value (number given before S/I/R): 16
Host strain YMC17/03/R348
  antibiotic susceptibility S/I/R: R
  antibiotic susceptibility value: 16
  susceptibility category (S/I/R): R
  susceptibility test value (number given before S/I/R): 16
Host strain YMC17/03/R585
  antibiotic susceptibility S/I/R: R
  antibiotic susceptibility value: 16
  susceptibility category (S/I/R): R
  susceptibility test value (number given before S/I/R): 16
Host strain YMC17/03/R1888
  antibiotic susceptibility S/I/R: R
  antibiotic susceptibility value: 16
  susceptibility category (S/I/R): R
  susceptibility test value (number given before S/I/R): 16
Host strain YMC17/03/R3279
  antibiotic susceptibility S/I/R: R
  antibiotic susceptibility value: 16
  susceptibility category (S/I/R): R
  susceptibility test value (number given before S/I/R): 16
Host strain YMC17/03/R4077
  antibiotic susceptibility S/I/R: R
  antibiotic susceptibility value: 16
  susceptibility category (S/I/R): R
  susceptibility test value (number given before S/I/R): 16
Host strain YMC17/03/R4607
  antibiotic susceptibility S/I/R: R
  antibiotic susceptibility value: 16
  susceptibility category (S/I/R): R
  susceptibility test value (number given before S/I/R): 16
Host strain YMC17/04/R488
  antibiotic susceptibility S/I/R: R
  antibiotic susceptibility value: 16
  susceptibility category (S/I/R): R
  susceptibility test value (number given before S/I/R): 16
Host strain YMC17/04/R640
  antibiotic susceptibility S/I/R: R
  antibiotic susceptibility value: 16
  susceptibility category (S/I/R): R
  susceptibility test value (number given before S/I/R): 16
Host strain YMC/17/05/R1095
  antibiotic susceptibility S/I/R: R
  antibiotic susceptibility value: 16
  susceptibility category (S/I/R): R
  susceptibility test value (number given before S/I/R): 16
